Common to all, as to type: cell-based
In data set [1] the test system is CDKL5 wt allele. Put plainly: qPCR of CDKL5 wt allele reactivation (Xi reactivation) in human CDKL5 patient NPC line. The following applies: NPC. The procedure: Human CDKL5 patient NPCs were a generous gift from Dr. Sheridan. The clones (CDKL5wtXa, CDKL5mutXa) were previously developed by Dr. Roy Perlis. (Smita J et al. (2019). They were maintained in 50% of PSC Neural Induction Medium (Gibco), supplemented with Neural Induction supplement (×50) and 50% of Advanced DMEM/F12 Medium (Gibco) on Geltrex (Gibco) matrix-coated culture dish. Transfection was performed with 20-120 nM ASO assisted by Lipofectamine 3000 with Plus reagent (Thermo Fisher).
(§1) RNA is isolated by Trizol (Life Technologies) extraction (tissues are snap frozen in liquid nitrogen and ground with pestle and mortar or put in Trizol and homogenized using a Qiagen TissueLyser), treated with TurboDNAse for 30 min at 37° C. 2 μg RNA is used for each of the reverse transcriptase (and rt minus control) reactions (Superscript III, Invitrogen) followed by the SYBR green qPCR using the primers listed in table, with annealing temperature of 60° C. for 45 cycles. The relative efficiency of the reactivations is calculated by comparing to GAPDH or TBP RNA as the internal control in mouse experiment. The relative efficiency of the reactivations is calculated by comparing to RPL13a as the internal control in human cells.
Experiments were designed to test Xi reactivation in human CDKL5 patient's NPCs with RNA meth inhibitor 116. A human CDKL5 patient NPC line carrying mutation on the Xa was treated with XIST ASO 6B to XIST and RNA meth inhibitor 116. On day 0, cells were treated with 20 nM of XIST ASO 6B and treated with 10 nM-100 nM of RNA meth inhibitor 116 at day 0 and day 4 (FIG. 9A). On day 7, cells were harvested for qPCR analysis. […] XIST expression was relative to untreated levels, normalized to RPL13a. […] CDKL5 wt reactivation was normalized to CDKL5mut expression from the Xa chromosome. […] There was 6.2% Xi reactivation in 1 nM of 116 treatment and 2% Xi reactivation in 10 nM treatment, both also in combination with 20 nM XIST ASO 6B.
A human CDKL5 patient NPC line carrying mutation on the Xa was treated with XIST ASO 6B to XIST and RNA meth inhibitor 117. On day 0, cells were treated with 20 nM of XIST ASO 6B, and treated with 10 nM-100 nM of RNA meth inhibitor 117 at days 0 and 4 (FIG. 10A). On day 7, cells were harvested for qPCR analysis. […] XIST expression was relative to untreated levels, normalized to RPL13a. […] CDKL5 wt reactivation was normalized to CDKL5mut expression from the Xa chromosome.
Experiments were designed to test Xi reactivation in human CDKL5 patient's NPCs using METTL3 ASOs. A human CDKL5 patient NPC line carrying mutation on the Xa was treated with XIST ASO 6B targeted to XIST and METTL3 ASO 3-7 targeted to METTL3. On day 0, cells were treated with 20 nM of XIST ASO-6B, and 0 nM-120 nM of METTL3 ASOs at day 0. On day 5, cells were harvested for qPCR analysis. […] CDKL5 wt reactivation was normalized to CDKL5mut expression from the Xa chromosome (FIG. 14). […] A one way ANOVA, multiple comparison test provided the following data: P=0.0069 for the combination with XIST ASO; and P=0.1941 for the combination without XIST ASO (ns).
For orientation: Quantitative PCR measures a nucleic acid by following its amplification.

The subject of data set [2] is CDKL5 wt allele. Put plainly: qPCR of CDKL5 wt allele reactivation (Xi reactivation) in human CDKL5 patient fibroblast line. The method, then: Mecp2-Luc fibroblast cell lines were a generous gift from Dr. Bedalov. The clonal hybrid (cast/mus) cell line (EY.T4) was previously developed in the lab (Yildirim E et al. (2011) Nat Struct Mol Biol 19:56-61). Passage number is kept below 25, no further verification of cell line identity was performed. Human CDKL5 patient fibroblast cell lines were a generous gift from Dr. Sheridan. The clones (CDKL5wtXa, CDKL5mutXa) were previously developed by Dr. Roy Perlis. (Smita J et al. (2019). They were maintained in DMEM-glutamax (Gibco), supplemented with fetal bovine serum (FBS, 10%), non-essential amino acids (1×, Gibco), HEPES buffer (25 mM, Gibco), penicillin/streptomycin (1×, Gibco) and 2-Mercaptoethanol (Sigma). Transfection was performed with 20 nM ASO assisted by Lipofectamine LTX with Plus reagent (Thermo Fisher).
as §1
A human CDKL5 patient fibroblast line carrying mutation on the Xa was treated with XIST ASO 6B to XIST and RNA meth inhibitor. 116. On day 0, cells were treated with 20 nM of XIST ASO 6B and treated with 1 nM-1 uM of RNA meth inhibitor 116 on days 0 and 4 (FIG. 3B). On day 7, cells were harvested for qPCR analysis.
Experiments were designed to test Xi reactivation with METTL3 siRNA with and without XIST ASO 6B. A human CDKL5 patient fibroblast line carrying mutation on the Xa was treated with ASO to XIST and siRNA to METTL3. On day 0, cells were treated with 20 nM of XIST ASO 6B with 50 nM of METTL3 siRNA or 50 nM of Scr siRNA (FIG. 6A). On day 7, cells were harvested for qPCR analysis. […] METTL3 expression was relative to untreated levels, normalized to RPL13a. […] CDKL5 wt reactivation was normalized to CDKL5mut expression from the Xa chromosome.
Experiments were designed to test Xi reactivation in human CDKL5 patient's fibroblast using METTL3 ASOs. A human CDKL5 patient fibroblast line carrying mutation on the Xa was treated with XIST ASO 6B to XIST and METTL3 ASOs to METTL3. On day 0, cells were treated with 20 nM of XIST ASO 6B and 0 nM-120 nM of METTL3 ASOs, also on at day 0. On day 5, cells were harvested for qPCR analysis. […] CDKL5 wt reactivation was normalized to CDKL5mut expression from the Xa chromosome (FIGS. 13A-13C). […] All of the ASOs targeting METTL3 increased Xi reactivation of CDKL5 compared to using the XIST ASO alone. A one way ANOVA, multiple comparison test provided the following data: P=0.0730 for ASO3-3 (ns); P=0.0073 for ASO3-6; and P=0.0141 for ASO3-7.

A further data set relates to human XIST transcript. Put plainly: XIST knock down by XIST ASOs (Table 1). Also noted: ASO conc at max KD: unit not given here. The following applies: for % Max KD: XIST knock down, cells treated for 72 hrs with XIST ASO; for ASO conc at max KD: concentration of XIST ASO giving max KD, 72 hrs. The source says: The methods include administering an inhibitor of an XIST RNA itself, e.g., an inhibitory nucleic acid targeting XIST RNA. Although in typical usage XIST refers to the human sequence and XIST to the mouse sequence, in the present application the terms are used interchangeably. The human XIST sequence is available in the ensemble database at ENSG00000229807; it is present on Chromosome X at 73,820,651-73,852,753 reverse strand (Human GRCh38.p2). The sequences of exons 1-6 are shown in SEQ ID NOs:73-79 (see FIG. 2); XIST exons correspond to 601-11972 (exon 1); 15851-15914 (exon 2); 19593-20116 (exon 3); 21957-21984 (exon 4); 22080-22288 (exon 5); and 23887-33304 (exon 6). […] The inhibitory nucleic acid targeting XIST RNA can be any inhibitory nucleic acid as described herein, and can include modifications described herein or known in the art. In some embodiments, the inhibitory nucleic acid is an antisense oligonucleotide (ASO) that targets a sequence in XIST RNA, e.g., a sequence within an XIST exon as shown in SEQ ID NO:1-45 or within the RNA sequence as set forth in NR_001564.2, preferably wherein the ASO comprises a sequence as shown in Table 1. In some embodiments, the inhibitory nucleic includes at least one locked nucleotide, e.g., is a locked nucleic acid (LNA). Table 1 provides a list of ASOs that have more than 80% XIST knock down when cells are treated for 72 hrs with the below XIST ASOs.

Where [3] appears, read: 0 nM-120 nM METTL3 ASO in combination with 20 nM XIST ASO 6B, day 5.

`O=C(NCc1cn2cc(CNC[C@@H]3CCCO3)ccc2n1)c1cc(=O)n2ccccc2n1` [RNA meth inhibitor 117, 4-oxo-N-((6-[({[(2S)-oxolan-2-yl]methyl]amino)methyl}imidazo[1,2-a]pyridin-2-yl}methyl)-4H-pyrido[1,2-a]pyrimidine-2-carboxamide, reference compound]: the “Xi reactivation (CDKL5 wt allele)” value in the data set on CDKL5 wt allele [1] (10 nM-100 nM of 117 with or without 20 nM ASO 6B, 7 days) was “no Xi reactivation”; with CDKL5 wt allele [2] (1 nM-1 uM of 117 with or without 20 nM ASO 6B, 7 days), “no Xi reactivation”.
“ASO3-3: ASO targeting human METTL3, TAGTACGGGTATGTTGAGC, SEQ ID NO 100 (listed as DNA, chemistry not fully specified)”: the “Xi reactivation (CDKL5 wt allele)” value in the data set with CDKL5 wt allele [2] (setting [3]) is on record as 1-2%.
Same read-out and setting: next, “ASO3-6: ASO targeting human METTL3, CCATGGCTATGGATTCTTAG, SEQ ID NO 102 (listed as DNA, chemistry not fully specified)”: 2-3%.
Take “ASO3-7: ASO targeting human METTL3, GTTACAAGAGTAGGATGTGC, SEQ ID NO 103 (listed as DNA, chemistry not fully specified)”: the “Xi reactivation (CDKL5 wt allele)” value in the data set on CDKL5 wt allele [1] (80-120 nM of METTL3 ASO 3-7 in the absence of the XIST ASO, day 5) is on record as 1.7-2.6%; in the data set on CDKL5 wt allele [1] (80-120 nM of METTL3 ASO 3-7 in the presence of 20 nM XIST ASO 6B, day 5) it was 2.9-3.2%; with CDKL5 wt allele [2] (setting [3]), 1-4%.
For “ASO 6I: XIST antisense oligonucleotide GTTCTGCACCTATCAGGCAG, SEQ ID NO 25 (listed as DNA, chemistry not given here)”, in the data set with human XIST transcript, the “% Max KD” value is recorded as 93% and the “ASO conc at max KD” value is listed as 20.
On the same counts, the results for “ASO 6P: XIST antisense oligonucleotide CCAGAGTGGTAGAAGAGATA, SEQ ID NO 27 (listed as DNA, chemistry not given here)” are 92% and 20.
Take “ASO 6Q: XIST antisense oligonucleotide TCAGAAGTCTGGCACATCTG, SEQ ID NO 5 (listed as DNA, chemistry not given here)”: in the data set with human XIST transcript, the “% Max KD” value amounted to 99% and the “ASO conc at max KD” value is recorded as 100.
In the case of “ASO 6R: XIST antisense oligonucleotide GGCCTTGTGTCACAAGTCTC, SEQ ID NO 6 (listed as DNA, chemistry not given here)”, in the data set on human XIST transcript, the “% Max KD” value was found to be 99% and the “ASO conc at max KD” value was found to be 100.
With “ASO 6S: XIST antisense oligonucleotide CTGAGGATTGTTTCTGAAAG, SEQ ID NO 21 (listed as DNA, chemistry not given here)”, in the data set on human XIST transcript, the “% Max KD” value is listed as 95% and the “ASO conc at max KD” value is 100.
Consider “ASO 6T: XIST antisense oligonucleotide CCCACAGAAAGTAATCACCA, SEQ ID NO 31 (listed as DNA, chemistry not given here)”, for which, in the data set on human XIST transcript, the “% Max KD” value is reported as 89% and the “ASO conc at max KD” value is 20.
The matching figures for “ASO 6U: XIST antisense oligonucleotide CTTTGTCCCAGGCACAGTCA, SEQ ID NO 13 (listed as DNA, chemistry not given here)”: 97% and 20.

Values taken from patent US20230383292A1, “TARGETING XIST AND RNA METHYLATION FOR X REACTIVATION THERAPY” (The General Hospital Corporation, priority 2020, published 2023).
